We go through 3 molecules from patent publication US9598419B1, “Imidazotriazine and imidazodiazine compounds” (Universite de Montreal, priority 2014, dated 2017).

The EC50 is the concentration at which the effect is half-maximal.

The target in series [1] is T1, protease-activated receptor type 4 (PAR4) (Homo sapiens, UniProt Q96RI0).
T1 sequence (Q96RI0 18-385): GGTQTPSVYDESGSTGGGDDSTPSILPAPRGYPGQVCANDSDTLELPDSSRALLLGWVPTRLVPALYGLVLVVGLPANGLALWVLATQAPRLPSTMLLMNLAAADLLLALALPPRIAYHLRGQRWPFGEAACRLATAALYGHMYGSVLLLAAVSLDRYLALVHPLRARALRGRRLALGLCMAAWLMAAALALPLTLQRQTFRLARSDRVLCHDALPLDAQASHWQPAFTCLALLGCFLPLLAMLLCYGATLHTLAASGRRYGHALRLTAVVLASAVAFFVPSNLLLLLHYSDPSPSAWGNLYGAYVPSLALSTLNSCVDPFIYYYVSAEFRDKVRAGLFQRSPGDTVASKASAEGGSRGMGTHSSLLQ
Particulars: quoted from the abstract; cited from earlier work.

The next series has as its target T2, PAR4 (Homo sapiens, UniProt Q96RI0).
T2 construct: PRP was isolated by centrifugation at 170 g for 14 minutes and platelets were further pelleted; from tissue; host or cells: human washed platelets
T2 sequence (Q96RI0 18-385): T1 sequence (Q96RI0 18-385)
Briefly: washed platelet aggregation assay (PAR4 agonist peptides). The class given is cell-based. Particulars: washed platelets. The procedure: Human blood was collected in ACD (85 mM tri-sodium citrate, 78 mM citric acid, 110 mM D-glucose, pH 4.4) at a ratio of 1.4 ml per 10 ml blood. PRP was isolated by centrifugation at 170 g for 14 minutes and platelets were further pelleted by centrifugation at 1300 g for 6 minutes. Platelets were washed once with 10 ml ACD containing 1 mg/ml bovine serum albumin Platelets were resuspended at ˜2.5×10^8/ml in Tyrode's Buffer (137 mM NaCl, 2 mM KCl, 1.0 mM MgCl2, 1 mM CaCl2, 5 mM glucose, 20 mM HEPES pH 7.4).

Another series concerns the target T3, PAR1 (Homo sapiens, UniProt P25116).
T3 construct: host or cells: ACS patients (clinical trial)
T3 sequence (P25116 22-425): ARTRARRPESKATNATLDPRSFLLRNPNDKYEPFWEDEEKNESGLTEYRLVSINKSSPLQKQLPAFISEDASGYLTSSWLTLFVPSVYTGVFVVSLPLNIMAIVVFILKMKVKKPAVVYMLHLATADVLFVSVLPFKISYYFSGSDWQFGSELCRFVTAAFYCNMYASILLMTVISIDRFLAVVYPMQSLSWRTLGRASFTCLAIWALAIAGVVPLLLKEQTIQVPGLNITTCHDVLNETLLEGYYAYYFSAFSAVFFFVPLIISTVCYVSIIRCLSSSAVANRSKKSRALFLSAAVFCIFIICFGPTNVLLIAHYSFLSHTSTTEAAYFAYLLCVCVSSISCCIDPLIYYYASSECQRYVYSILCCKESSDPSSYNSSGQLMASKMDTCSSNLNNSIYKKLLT
Particulars: ACS patients, phase III; cited from earlier work.

As to `CCOC(=O)c1ccc(-c2nn(Cc3ccccc3)c3ccccc23)cc1` [ethyl 4-(1-benzyl-1H-indazol-3-yl)benzoate], the “inhibition of PAR4-dependent platelet activation” value in series [1] was “selective and potent inhibitor”.
Regarding `C[C@H](N)C(=O)N[C@@H](Cc1ccc(O)cc1)C(=O)N1CCC[C@H]1C(=O)NCC(=O)N[C@@H](CCCCN)C(=O)N[C@@H](Cc1ccccc1)C(=O)O` [AYPGKF], the EC50 at PAR4 stood at 12 µM.
For the molecule `CCOC(=O)N[C@@H]1CC[C@@H]2[C@@H](C1)C[C@H]1C(=O)O[C@H](C)[C@H]1[C@H]2/C=C/c1ccc(-c2cccc(F)c2)cn1` [vorapaxar], on PAR1, the cardiovascular events entry is recorded as “did not significantly reduce” and the “risk of major bleeding” value is given as “significantly increased”.
